Measured values: patent US20220184155A1, “BACTERIOPHAGES FOR INHIBITING BACTERIA” (REGENTS OF THE UNIVERSITY OF MINNESOTA, priority 2020, published 2022)
Like-named read-outs stand apart in the source and are kept apart here.

Test system: mix-culture of E. coli strains (E20, 41, 55, and 59)
Test: Checkerboard titration assay, phage cocktail with antibiotics
Format: cell-based
Experimental: A checkerboard titration assay was performed as described previously (Hsieh et al. Diagn Microbiol Infect Dis 16, 343-349 (1993)). Briefly, antibiotics (cefoperazone, vancomycin, polymyxin B, and rifampicin) were two-fold serially diluted on each column, and phage cocktail was 10-fold diluted on each row. The mix-culture of E. coli strains (E20, 41, 55, and 59) was added to 10^5 CFU/well, and the plate was incubated at 42° C. for 24 hours. The OD600 was measured with SpectaMax i3 Platfrom (Molecular Devices, San Jose, Calif.), and shown as a heat plot.
Because the selective pressure of the enrichment media is determined by antibiotic supplements in the media, the inhibition efficacy of the phage cocktail was measured in the presence of four antibiotics (cefoperazone, vancomycin, polymyxin B, and rifampicin) used in BB and PB. […] A checkerboard assay was performed to examine the antimicrobial activity of the phage cocktail in combination with antibiotics.

[1] = Escherichia coli, antibiotic without the phage cocktail, 42° C., 24 hours, read-out: MIC
[2] = antibiotic without the phage cocktail, 42° C., 24 hours

MIC [1] [µg/mL]	Compound	MIC [2] [µg/mL]	MIC (Escherichia coli, 24 h) [µg/mL]
> 512	CCN1CCN(C(=O)N[C@@H](C(=O)N[C@@H]2C(=O)N3C(C(=O)O)=C(CSc4nnnn4C)CS[C@H]23)c2ccc(O)cc2)C(=O)C1=O [cefoperazone]	> 512	–
32	CO[C@H]1/C=C/O[C@@]2(C)Oc3c(C)c(O)c4c(O)c(c(/C=N/N5CCN(C)CC5)c(O)c4c3C2=O)NC(=O)/C(C)=C\C=C\[C@H](C)[C@H](O)[C@@H](C)[C@@H](O)[C@@H](C)[C@H](OC(C)=O)[C@@H]1C [rifampicin]	–	–
–	CN[C@H](CC(C)C)C(=O)N[C@H]1C(=O)N[C@@H](CC(N)=O)C(=O)N[C@H]2C(=O)N[C@H]3C(=O)N[C@H](C(=O)N[C@H](C(=O)O)c4cc(O)cc(O)c4-c4cc3ccc4O)[C@H](O)c3ccc(c(Cl)c3)Oc3cc2cc(c3O[C@@H]2O[C@H](CO)[C@@H](O)[C@H](O)[C@H]2O[C@H]2C[C@](C)(N)[C@H](O)[C@H](C)O2)Oc2ccc(cc2Cl)[C@H]1O [vancomycin]	–	64
–	polymyxin B	4	–
